Results from US20260274832A1, “COMPOUNDS AND THEIR USE IN TREATING CANCER” (ASTRAZENECA AB, priority 2023, published 2026).

Key:
[1] = biological target: T1, AR (L702H) in LNCaP cells (Homo sapiens, UniProt P10275, L702H/T878A); assay: LNCaP Androgen Receptor L702H Imaging Assay (LNCaP cells engineered by CRISPR/Cas9); format: cell-based; details: LNCaP cells with AR L702H mutation, 24 h incubation; for DC50: concentration giving 50% of maximum degradation of AR (L702H) per curve fit; for Dmax: LNCaP, maximum degradation observed, normalized as % of positive control
T1 construct: engineered to introduce the mutation L702H into the AR gene using CRISPR/Cas9; endogenous in cells; host or cells: LNCaP cells edited by CRISPR/Cas9 at the AR gene
Method in brief: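 CRISPR-engineered LNCaP cells carrying AR L702H were treated 24 h at 37 °C with a 12-point compound dose response (0.3% DMSO), then fixed and immunostained for AR with DRAQ5 nuclear counterstain. Nuclear AR was quantified by imaging, normalized to positive control; DC50 and Dmax came from Hill or bell-shaped fits.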

[2] = biological target: T2, AR (AR-full length) in LNCaP cells (Homo sapiens, UniProt P10275, T878A); assay: LNCaP Androgen Receptor Imaging Assay (immunofluorescence of endogenous nuclear AR); format: cell-based; details: 24 h incubation; for DC50: concentration giving 50% of maximum degradation of AR per curve fit, single experiment or average of two or more; for Dmax: LNCaP, maximum degradation observed, normalized as % of positive control (prior art AR PROTAC at 3 μM)
T2 construct: the prostate cancer cell line LNCaP (expressing AR-full length); endogenous in cells; host or cells: LNCaP
Method in brief: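 LNCaP cells (12,000/well) received a 12-point compound dose series (0.3% DMSO) for 24 h at 37° C., then were PFA-fixed and stained for AR (AR441) and nuclei (DRAQ5). Nuclear AR was quantified by imaging, normalized to a 3 μM AR PROTAC control; DC50 and Dmax came from Hill/bell curve fits.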

T1 sequence (P10275 whole entry L702H/T878A): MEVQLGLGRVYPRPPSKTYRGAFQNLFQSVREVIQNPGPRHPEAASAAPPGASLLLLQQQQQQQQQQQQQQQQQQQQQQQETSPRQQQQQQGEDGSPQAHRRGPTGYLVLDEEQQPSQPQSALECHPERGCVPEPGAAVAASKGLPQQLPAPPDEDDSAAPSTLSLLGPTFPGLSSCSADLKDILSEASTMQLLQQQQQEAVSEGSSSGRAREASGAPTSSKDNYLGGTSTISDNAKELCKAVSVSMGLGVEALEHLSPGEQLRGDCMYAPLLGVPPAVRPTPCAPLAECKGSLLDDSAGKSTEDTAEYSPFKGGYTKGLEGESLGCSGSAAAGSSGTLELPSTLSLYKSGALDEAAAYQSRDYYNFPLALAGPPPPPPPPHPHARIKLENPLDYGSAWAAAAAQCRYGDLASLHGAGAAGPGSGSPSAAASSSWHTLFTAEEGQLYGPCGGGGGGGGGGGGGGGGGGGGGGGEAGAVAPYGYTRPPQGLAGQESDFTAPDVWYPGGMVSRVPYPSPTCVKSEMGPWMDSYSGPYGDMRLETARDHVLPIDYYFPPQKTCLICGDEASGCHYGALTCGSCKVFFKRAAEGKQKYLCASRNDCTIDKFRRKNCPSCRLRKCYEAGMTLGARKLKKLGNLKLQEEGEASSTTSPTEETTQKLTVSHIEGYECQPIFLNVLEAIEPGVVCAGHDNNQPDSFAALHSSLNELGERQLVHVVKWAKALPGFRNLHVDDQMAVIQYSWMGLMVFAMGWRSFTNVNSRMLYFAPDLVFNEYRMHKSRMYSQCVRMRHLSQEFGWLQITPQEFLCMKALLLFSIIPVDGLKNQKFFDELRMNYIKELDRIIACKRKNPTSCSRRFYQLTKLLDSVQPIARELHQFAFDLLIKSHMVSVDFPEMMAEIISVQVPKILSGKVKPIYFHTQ
T1 sequence (Q96SW2 whole entry partner): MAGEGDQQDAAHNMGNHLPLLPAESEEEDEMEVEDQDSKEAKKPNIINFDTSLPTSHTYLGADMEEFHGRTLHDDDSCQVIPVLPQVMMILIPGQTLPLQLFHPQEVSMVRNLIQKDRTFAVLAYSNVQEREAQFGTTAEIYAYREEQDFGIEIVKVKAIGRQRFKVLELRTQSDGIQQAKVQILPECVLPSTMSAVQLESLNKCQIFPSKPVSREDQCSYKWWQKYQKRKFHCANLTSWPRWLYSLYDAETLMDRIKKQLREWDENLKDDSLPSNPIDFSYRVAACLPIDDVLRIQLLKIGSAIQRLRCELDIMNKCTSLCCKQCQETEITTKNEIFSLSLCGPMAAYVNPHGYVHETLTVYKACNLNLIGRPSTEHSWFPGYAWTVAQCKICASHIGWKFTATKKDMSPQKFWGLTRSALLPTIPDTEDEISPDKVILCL
T2 sequence (P10275 whole entry T878A): as the sequence (P10275 whole entry L702H/T878A) above, with H702L counted along it
T2 sequence (Q96SW2 whole entry partner): as the sequence (Q96SW2 whole entry partner) above

| DC50 [1] [nM] | Dmax [1] [%] | DC50 [2] [nM] | Dmax [2] [%] | SMILES |
| --- | --- | --- | --- | --- |
| 42 | 78 | 31 | 99 | N#Cc1c[nH]c2c(N3CCC[C@@H](c4ccc(N5CC6(CCC(CN7CCN(c8ccc9c(c8)CN(C8CCC(=O)NC8=O)C9=O)CC7)CC6)C5)cc4)C3)ccc(Cl)c12 (stereo partly drawn) [Example 130, 4-Chloro-7-[(3S)-3-{4-[7-({4-[2-(2,6-dioxopiperidin-3-yl)-1-oxo-2,3-dihydro-1H-isoindol-5-yl]piperazin-1-yl}methyl)-2-azaspiro[3.5]nonan-2-yl]phenyl}piperidin-1-yl]-1H-indole-3-carbonitrile] |
| 41 | 94 | 17 | 105 | N#Cc1c[nH]c2c(N3CCC[C@@H](c4ccc(N5CC6(CCC(CN7CCC(n8ccc9c(N%10CCC(=O)NC%10=O)cccc98)CC7)CC6)C5)cc4)C3)ccc(Cl)c12 [Example 131, 4-Chloro-7-[(3S)-3-{4-[7-({4-[4-(2,4-dioxo-1,3-diazinan-1-yl)-1H-indol-1-yl]piperidin-1-yl}methyl)-2-azaspiro[3.5]nonan-2-yl]phenyl}piperidin-1-yl]-1H-indole-3-carbonitrile] |
| 5 | 115 | 6 | 98 | Cn1c(C2CCN(CC3CCN(c4ccc([C@H]5CCCN(c6ccc(Cl)c7c(C#N)n[nH]c67)C5)cc4)CC3)CC2)cc2ccc(N3CCC(=O)NC3=O)cc21 [Example 132, 4-Chloro-7-[(3R)-3-{4-[4-({4-[6-(2,4-dioxo-1,3-diazinan-1-yl)-1-methyl-1H-indol-2-yl]piperidin-1-yl}methyl)piperidin-1-yl]phenyl}piperidin-1-yl]-1H-indazole-3-carbonitrile] |
| 8 | 97 | 4 | 103 | N#Cc1n[nH]c2c(N3CCC[C@@H](c4ccc(N5CCC(CN6CCN(c7ccc8c(c7)CN(C7CCC(=O)NC7=O)C8=O)CC6)CC5)cc4)C3)ccc(F)c12 (stereo partly drawn) [Example 133, 7-[(3S)-3-{4-[4-({4-[2-(2,6-Dioxopiperidin-3-yl)-1-oxo-2,3-dihydro-1H-isoindol-5-yl]piperazin-1-yl}methyl)piperidin-1-yl]phenyl}piperidin-1-yl]-4-fluoro-1H-indazole-3-carbonitrile] |
| 22 | 94 | 5 | 106 | N#Cc1n[nH]c2c(N3CCC[C@@H](c4ccc(N5CCC(CN6CCC(n7ccc8c(N9CCC(=O)NC9=O)cccc87)CC6)CC5)cc4)C3)ccc(F)c12 [Example 134, 7-[(3S)-3-{4-[4-({4-[4-(2,4-Dioxo-1,3-diazinan-1-yl)-1H-indol-1-yl]piperidin-1-yl}methyl)piperidin-1-yl]phenyl}piperidin-1-yl]-4-fluoro-1H-indazole-3-carbonitrile] |
| 81 | 91 | 24 | 105 | N#Cc1c[nH]c2c(N3CCC(c4ccc(N5CC6(CCC(CN7CCC(n8ccc9c(N%10CCC(=O)NC%10=O)cccc98)CC7)CC6)C5)cc4)CC3)ccc(F)c12 [Example 135, 7-(4-{4-[7-({4-[4-(2,4-Dioxo-1,3-diazinan-1-yl)-1H-indol-1-yl]piperidin-1-yl}methyl)-2-azaspiro[3.5]nonan-2-yl]phenyl}piperidin-1-yl)-4-fluoro-1H-indole-3-carbonitrile] |
| 14 | 108 | 10 | 104 | Cn1c(C2CCN(CC3CCN(c4ccc([C@H]5CCCN(c6ccc(Cl)c7c(C#N)c[nH]c67)C5)cc4)CC3)CC2)cc2cc(F)c(N3CCC(=O)NC3=O)cc21 [Example 136, 4-Chloro-7-[(3R)-3-{4-[4-({4-[6-(2,4-dioxo-1,3-diazinan-1-yl)-5-fluoro-1-methyl-1H-indol-2-yl]piperidin-1-yl}methyl)piperidin-1-yl]phenyl}piperidin-1-yl]-1H-indole-3-carbonitrile] |
| 20 | 109 | 10 | 105 | Cn1c(C2CCN(CC3CCN(c4ccc([C@@H]5CCCN(c6ccc(Cl)c7c(C#N)c[nH]c67)C5)cc4)CC3)CC2)cc2cc(F)c(N3CCC(=O)NC3=O)cc21 [Example 137, 4-Chloro-7-[(3S)-3-{4-[4-({4-[6-(2,4-dioxo-1,3-diazinan-1-yl)-5-fluoro-1-methyl-1H-indol-2-yl]piperidin-1-yl}methyl)piperidin-1-yl]phenyl}piperidin-1-yl]-1H-indole-3-carbonitrile] |
| 6 | 108 | 8 | 104 | Cn1c(C2CCN(CC3CCN(c4ccc([C@H]5CCCN(c6ccc(Cl)c7c(C#N)n[nH]c67)C5)cc4)CC3)CC2)cc2cc(F)c(N3CCC(=O)NC3=O)cc21 [Example 138, 4-Chloro-7-[(3R)-3-{4-[4-({4-[6-(2,4-dioxo-1,3-diazinan-1-yl)-5-fluoro-1-methyl-1H-indol-2-yl]piperidin-1-yl}methyl)piperidin-1-yl]phenyl}piperidin-1-yl]-1H-indazole-3-carbonitrile] |
| 16 | 107 | 10 | 105 | Cn1c(C2CCN(CC3CCN(c4ccc([C@@H]5CCCN(c6ccc(Cl)c7c(C#N)n[nH]c67)C5)cc4)CC3)CC2)cc2cc(F)c(N3CCC(=O)NC3=O)cc21 [Example 139, 4-Chloro-7-[(3S)-3-{4-[4-({4-[6-(2,4-dioxo-1,3-diazinan-1-yl)-5-fluoro-1-methyl-1H-indol-2-yl]piperidin-1-yl}methyl)piperidin-1-yl]phenyl}piperidin-1-yl]-1H-indazole-3-carbonitrile] |
| 14 | 56 | 7 | 88 | Cn1c(C2CCN(CC3CCN(c4ccc(C5CCN(c6ccc(F)c7c(C#N)n[nH]c67)CC5)cc4)CC3)CC2)cc2ccc(N3CCC(=O)NC3=O)cc21 [Example 140, 7-(4-{4-[4-({4-[6-(2,4-Dioxo-1,3-diazinan-1-yl)-1-methyl-1H-indol-2-yl]piperidin-1-yl}methyl)piperidin-1-yl]phenyl}piperidin-1-yl)-4-fluoro-1H-indazole-3-carbonitrile] |
| 23 | 105 | 21 | 95 | Cc1cc2c(N3CCC(=O)NC3=O)cccc2n1C1CCN(CC2CCN(c3ccc(C4CCN(c5ccc(F)c6c(C#N)c[nH]c56)CC4)cc3)CC2)CC1 [Example 141, 7-(4-{4-[4-({4-[4-(2,4-Dioxo-1,3-diazinan-1-yl)-2-methyl-1H-indol-1-yl]piperidin-1-yl}methyl)piperidin-1-yl]phenyl}piperidin-1-yl)-4-fluoro-1H-indole-3-carbonitrile] |
| 45 | 109 | 25 | 106 | N#Cc1c[nH]c2c(N3CCC(c4ccc(N5CC6(CCC(CN7CCC(n8ccc9c(N%10CCC(=O)NC%10=O)cccc98)CC7)CC6)C5)cc4)CC3)ccc(Cl)c12 [Example 142, 4-Chloro-7-(4-{4-[7-({4-[4-(2,4-dioxo-1,3-diazinan-1-yl)-1H-indol-1-yl]piperidin-1-yl}methyl)-2-azaspiro[3.5]nonan-2-yl]phenyl}piperidin-1-yl)-1H-indole-3-carbonitrile] |
| 67 | 104 | 37 | 101 | COc1nc(N2CCN(CC3CCN(c4ccc(C5CCN(c6ccc(Cl)c7c(C#N)n[nH]c67)CC5)cc4)CC3)CC2)cc2c1C(=O)N(C1CCC(=O)NC1=O)C2 (stereo not shown) [Example 143, 4-Chloro-7-(4-{4-[4-({4-[2-(2,6-dioxopiperidin-3-yl)-4-methoxy-3-oxo-2,3-dihydro-1H-pyrrolo[3,4-c]pyridin-6-yl]piperazin-1-yl}methyl)piperidin-1-yl]phenyl}piperidin-1-yl)-1H-indazole-3-carbonitrile] |
| 95 | 75 | 21 | 97 | COc1nc(N2CCN(CC3CCN(c4ccc(C5CCN(c6ccc(F)c7c(C#N)n[nH]c67)CC5)cc4)CC3)CC2)cc2c1C(=O)N(C1CCC(=O)NC1=O)C2 (stereo not shown) [Example 144, 7-(4-{4-[4-({4-[2-(2,6-Dioxopiperidin-3-yl)-4-methoxy-3-oxo-2,3-dihydro-1H-pyrrolo[3,4-c]pyridin-6-yl]piperazin-1-yl}methyl)piperidin-1-yl]phenyl}piperidin-1-yl)-4-fluoro-1H-indazole-3-carbonitrile] |
| 40 | 70 | 9 | 98 | N#Cc1n[nH]c2c(N3CCC(c4ccc(N5CCC(CN6CCN(c7ccc8c(c7)CN(C7CCC(=O)NC7=O)C8=O)CC6)CC5)cc4)CC3)ccc(F)c12 (stereo not shown) [Example 145, 7-(4-{4-[4-({4-[2-(2,6-Dioxopiperidin-3-yl)-1-oxo-2,3-dihydro-1H-isoindol-5-yl]piperazin-1-yl}methyl)piperidin-1-yl]phenyl}piperidin-1-yl)-4-fluoro-1H-indazole-3-carbonitrile] |
